This is an account of results in PMC12564223, “UHPLC-QTOF-ESI-MS/MS, SNAP-MS Identification, In Silico Prediction of Pharmacokinetic Properties of Constituents from the Stem Bark of Holarrhena floribunda (G. Don) T. Durand and Schinz (Apocynaceae)” (Biomolecules, 2025).

The subject of data set [1] is P. falciparum Dd2 (multidrug-resistant). Briefly: Plasmodium falciparum growth inhibition assay (SYBR green I), Dd2 strain. In kind it is cell-based. Particulars: for IC50: Plasmodium falciparum, read-out: IC50/PfDd2.
Data set [2] relates to P. falciparum 3D7 (Chloroquine-sensitive). Briefly: Plasmodium falciparum growth inhibition assay (SYBR green I), 3D7 strain. The settings on record: read-out: IC50/Pf3D7. In kind it is cell-based.
For data set [3], the system named is Plasmodium falciparum FCB1 (chloroquine-resistant). More on the design: method as in PMID 15863333. The settings on record: Pf FCB1; ref [17]; cited from earlier work.
The test system of data set [4] is human cervix carcinoma KB-3-1 cancer cell lines. Briefly: Cytotoxicity on KB-3-1 cells. The settings on record: called IC50 in the text.
The subject of data set [5] is Plasmodium falciparum K1 (multi-resistant). More on the design: method as in PMID 29172699. The settings on record: Pf K1; ref [18]; cited from earlier work.
The subject of data set [6] is human cervix carcinoma KB-3-1 cancer cell lines.
[7] abbreviates: DD2, compounds and reference drugs, 72 h incubation.
The mark [8] stands for this setting: 3D7, compounds and reference drugs, 72 h incubation.

Like-named read-outs stand apart in the source and are kept apart here.

In the case of `CCN(CC)CCCC(C)Nc1ccnc2cc(Cl)ccc12` (centres unmarked) [Chloroquine, reference compound], the “RI: [IC50PfDd2/IC50Pf3D7]” value in data set [1] turned out to be 16.22. For the same compound, the IC50 in data set [1] (DD2, 72 h) came out at 0.73 ± 0.09 µM; in data set [2] (3D7, 72 h), 0.045 ± 0.003 µM.

Regarding `CNC1CCC2(C)C(=CCC3C2CC(OC(=O)CC=C(C)C)C24CN(C)C(C)C2CCC34)C1` (centres unmarked) [compound 11, Holarrhesine], the IC50 in data set [3] was 0.97 ± 0.11 µM.

Turning to Cryptophycin, the “CC50 on KB-3-1” value in data set [4] is 1.3 × 10^−5 μM µM; in data set [4] (listed as cryptophycin), 1.3e-05 µM.

Regarding `CCOC(=O)c1c(C)cc(O)cc1O` [compound 26, ethylorsalinate], the IC50 in data set [1] (setting [7]) and in data set [2] (setting [8]) was > 50 µM each time.

Consider `CNC1CCC2(C)C(=CCC3C2CCC24CNC(C)C2CCC34)C1` (centres unmarked) [compound 4, Conimin/conamine], for which the IC50 in data set [5] is 8 µM.

Turning to `CC(O)C1CCC2C3CC=C4CC(N)CCC4(C)C3CCC12C` (centres unmarked) [compound 15, Holaphyllaminol], the IC50 in data set [5] is 11.7 µM.

In the case of `CC(=O)C1CCC2C3CC=C4CC(N)CCC4(C)C3CCC12C` (centres unmarked) [compound 14, Holaphyllamine], the IC50 in data set [1] (DD2, 72 h) was 55.8 ± 9.75 µM; in data set [2] (3D7, 72 h), 49.5 ± 4.83 µM. In addition, the “RI: [IC50PfDd2/IC50Pf3D7]” value in data set [1] (Resistance Index) was found to be 1.12. The “CC50 on KB-3-1” value in data set [6] worked out at 9.8 µM.

For `COc1cc(C)c2c(=O)c3c(O)cc(OC)cc3oc2c1` [compound 27, lichexanthone], the IC50 in data set [1] (DD2, 72 h) was 36.5 ± 1.39 µM; in data set [2] (3D7, 72 h) it was 33.4 ± 1.2 µM. For the same compound, the “RI: [IC50PfDd2/IC50Pf3D7]” value in data set [1] (Resistance Index) is given as 1.09.

`CC(C)=CCC(=O)O[C@@H]1C[C@H]2[C@@H](CC=C3C[C@@H](N(C)C)CC[C@@]32C)[C@@H]2CC[C@@H]3[C@H](C)N(C)C[C@]312` [compound 10, Holarrhetine]: in data set [3], the IC50 is 1.13 ± 0.32 µM.

With `CNC1CCC2(C)C(=CCC3C2CCC2(C)C(C(C)=O)CCC32)C1` (centres unmarked) [compound 16, N-methylholaphyllamine], the IC50 in data set [5] is 10.6 µM.

Regarding `C[C@@H]1CC[C@H]2[C@@H](C)C(=O)O[C@@H]3O[C@@]4(C)CC[C@@H]1[C@]32OO4` [Artemisinin, reference compound], the IC50 in data set [1] (setting [7]) came out at 0.025 ± 0.006 µM; in data set [2] (setting [8]) it was 0.035 µM. The “RI: [IC50PfDd2/IC50Pf3D7]” value in data set [1] (Resistance Index) came to 0.71.

Regarding `CC1N=CC23CCC4C(CC=C5CC(N)CCC54C)C2CCC13` (centres unmarked) [compound 3, Irheline], the IC50 in data set [1] (setting [7]) is > 50 µM; in data set [2] (setting [8]), > 50 µM; in data set [5] it was 1.2 µM.

As for `C[C@H]1[C@H]2CC[C@H]3[C@@H]4CC=C5C[C@@H](N(C)C)CC[C@]5(C)[C@H]4CC[C@]23CN1C` [compound 5, Conessine], the IC50 in data set [1] (DD2, 72 h) was 28.5 ± 0.704 µM; in data set [2] (3D7, 72 h), 26 ± 0.43 µM; in data set [3], 1.04 µM. In addition, the “RI: [IC50PfDd2/IC50Pf3D7]” value in data set [1] (Resistance Index) amounted to 1.09.
